PubChem BioAssay (NCI)
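Following 48 hours of exposure in 96-well plates, responses at five concentrations were used to interpolate endpoints linearly. GI50 is the concentration that inhibits growth by half. The concentration for full growth arrest is given as TGI.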

How the values were obtained:
Test in all cases: NCI anticancer screen, dose series, 48 h
A498 renal = system: A498 renal
HS 578T breast = system: HS 578T breast
KM12 colon = system: KM12 colon
NCI-H226 lung = system: NCI-H226 lung
NCI/ADR-RES ovarian = system: NCI/ADR-RES ovarian
OVCAR-3 ovarian = system: OVCAR-3 ovarian
TK-10 renal = system: TK-10 renal

| SMILES | GI50 (A498 renal) [µM] | TGI (A498 renal) [µM] | GI50 (HS 578T breast) [µM] | TGI (HS 578T breast) [µM] | GI50 (KM12 colon) [µM] | TGI (KM12 colon) [µM] | GI50 (NCI-H226 lung) [µM] | TGI (NCI-H226 lung) [µM] | GI50 (NCI/ADR-RES ovarian) [µM] | TGI (NCI/ADR-RES ovarian) [µM] | GI50 (OVCAR-3 ovarian) [µM] | TGI (OVCAR-3 ovarian) [µM] | GI50 (TK-10 renal) [µM] | TGI (TK-10 renal) [µM] |
| --- | --- | --- | --- | --- | --- | --- | --- | --- | --- | --- | --- | --- | --- | --- |
| O=[N+]([O-])c1cc(S(=O)(=O)Oc2ccccc2)ccc1Cl | 1.68 | 4.05 | 2.7 | 6.73 | 1.47 | 2.89 | 7.71 | 21.1 | 8.27 | 45.3 | 1.49 | 2.85 | 12.5 | 25.1 |
| CN(CC(N)=O)C(=O)N(CCCl)N=O |  | > 100 |  | > 100 |  | > 100 |  | > 100 |  | > 100 |  | > 100 |  | > 100 |
| CN1CCN(Cc2ccc(NC(=O)c3[nH]ncc3Nc3ncnc4sc5c(c34)CCCC5)cc2)CC1 | 0.0865 | 0.668 | 0.151 | 1.74 | 0.222 | 1.29 |  |  |  |  | 0.22 | 1.34 | 1.14 | 2.4 |
| CC(C)=CCC/C(C)=C/CC/C(C)=C/CC/C=C(\C)CC/C=C(\C)CCC(=O)Nc1ccn(C2OC(CO)C(O)C2(F)F)c(=O)n1 (stereo unspecified) | 0.0695 | 18.5 | 10.3 | 35.2 | 0.181 | 18.1 | 2.5 | 20.4 | 0.116 | 16.6 |  | 4.48 | 3.05 | 18.8 |
| BrCc1ccc(CBr)cc1 | 18.3 | 38.1 | 21.6 | 69 | 1.29 | 6.71 | 5.37 | 15.6 | 6.95 | > 21.1 | 4.1 | 17.4 | 1.58 | 5.99 |
| C[C@@H]1O[C@@H](OC[C@H]2O[C@@H](OCCc3ccc(O)c(O)c3)[C@H](O)[C@@H](O)[C@@H]2OC(=O)/C=C/c2ccc(O)c(O)c2)[C@H](O)[C@H](O)[C@H]1O |  |  | > 100 | > 100 | > 100 | > 100 | > 100 | > 100 | 74.3 | > 100 | > 100 | > 100 | > 100 | > 100 |
| COc1ccc(OC)c(C2SCC(=O)N2NC(=O)C(O)c2ccccc2)c1 (stereo unspecified) | > 100 | > 100 | > 100 | > 100 | > 100 | > 100 | > 100 | > 100 |  |  | > 100 | > 100 | > 100 | > 100 |
| CC(C)(C)c1ccc(C(=O)Nc2sc3c(c2C(N)=O)CCC(=O)C3)cc1 | 2.83 | 9.04 | 1.11 | 5.33 | 0.55 | 2.34 | 1.53 | 3.43 | 1.47 | 5.53 | 0.426 | 1.52 | 1.42 | 4.77 |
| CCn1c2ccccc2c2cc(/C=C(/C#N)C(N)=O)ccc21 | 0.188 | 0.559 | 5.69 | 39.7 | 13.5 | > 100 | 0.209 | 1.13 | 11.2 | 88.1 | 3.43 | 19.1 | 2.31 | > 28.8 |
| CCN1C(=O)N(CC)C2C1NN=c1s/c(=C3\C(=O)N(CCc4ccccc4)c4ccccc43)c(=O)n12 (stereo unspecified) | 0.115 | 0.603 | 0.449 | 6.37 | 0.38 | 11.2 | 0.811 | 3.78 | 0.378 | 6.48 | 0.291 | 0.901 | 4.22 | 29.2 |
| Nc1ccccc1SCc1csc(-c2ccc(Cl)cc2)n1 |  | 55.9 |  | > 91.5 |  | 47.4 |  | 62.5 |  | 66.4 |  | > 67.6 |  | > 100 |
| Cn1cncc1CC1COC(=O)C1C(O)c1ccccc1 (stereo unspecified) |  | > 100 |  | > 100 |  | > 100 |  | > 100 |  | > 100 |  | > 100 |  | > 100 |
| CC1(C)CCC[C@]2(C)[C@@H](C=O)C(C=O)=CC[C@@H]12 |  | > 100 |  | > 100 |  | 31.5 |  | 56.1 |  | 40.8 |  | 28 |  | 74 |
| CC1(C)OC2C(=O)C=C(COCc3ccccc3)C2O1 (stereo unspecified) |  | > 100 |  | > 100 |  | 51.1 |  | 61.5 |  | > 100 |  |  |  | > 100 |
